In ChEMBL document CHEMBL1201862, “PubChem BioAssay data set” (2004):
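Assay format: 96-well plates, 48-hour exposure. The concentration for 50% growth inhibition is given as GI50.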 Activity calls are given as the source filed them. No stated cut-off is given here; in the data, active = GI50 up to about 1.1 µM and inactive = higher.

Tests used:
Assay in all cases: NCI anticancer screen, dose series, 48 h
786-0 = test system: 786-0
ACHN = test system: ACHN
BT-549 = test system: BT-549
CAKI-1 = test system: CAKI-1
HCC 2998 = test system: HCC 2998
HCT-116 = test system: HCT-116
IGROV-1 = test system: IGROV-1
LOX IMVI = test system: LOX IMVI
NCI-H226 = test system: NCI-H226
NCI-H23 = test system: NCI-H23
SF-295 = test system: SF-295
SK-MEL-2 = test system: SK-MEL-2
SNB-19 = test system: SNB-19
SW-620 = test system: SW-620
T47D = test system: T47D
TK-10 = test system: TK-10
U-251 = test system: U-251
UACC-257 = test system: UACC-257
UO-31 = test system: UO-31
K562 = test system: K562

| Structure (SMILES) | GI50 (786-0) | GI50 (ACHN) | GI50 (BT-549) | GI50 (CAKI-1) | GI50 (HCC 2998) | GI50 (HCT-116) | GI50 (IGROV-1) | GI50 (LOX IMVI) | GI50 (NCI-H226) | GI50 (NCI-H23) | GI50 (SF-295) | GI50 (SK-MEL-2) | GI50 (SNB-19) | GI50 (SW-620) | GI50 (T47D) | GI50 (TK-10) | GI50 (U-251) | GI50 (UACC-257) | GI50 (UO-31) | GI50 (K562) |
| --- | --- | --- | --- | --- | --- | --- | --- | --- | --- | --- | --- | --- | --- | --- | --- | --- | --- | --- | --- | --- |
| Cc1ccc([C@@H]2[C@@H](C(=O)c3ccccn3)[C@H](c3ccc(C)cc3)C[C@](O)(c3ccccn3)[C@H]2C(=O)c2ccccn2)cc1 | 1.81 µM (inactive) | 2.51 µM (inactive) | > 27.4 µM (inactive) | 3.95 µM (inactive) | 7.35 µM (inactive) | 2.89 µM (inactive) | 4.53 µM (inactive) | 2.84 µM (inactive) | 4.1 µM (inactive) | 18.8 µM (inactive) | 4.21 µM (inactive) | 3.46 µM (inactive) | 3.04 µM (inactive) | > 22.6 µM (inactive) | 7.73 µM (inactive) | 6.05 µM (inactive) | 2.77 µM (inactive) | 8.04 µM (inactive) | 2.32 µM (inactive) |  |
| Clc1sc(Cl)c2c1[C@@H](Cl)C[C@@H]2Br | > 100 µM (inactive) | > 100 µM (inactive) | > 100 µM (inactive) | > 100 µM (inactive) | > 100 µM (inactive) | > 100 µM (inactive) | 72.9 µM (inactive) | 33.8 µM (inactive) |  | 61.4 µM (inactive) | > 100 µM (inactive) | > 100 µM (inactive) | > 100 µM (inactive) | 45.6 µM (inactive) | 44.7 µM (inactive) | > 100 µM (inactive) | > 100 µM (inactive) | 70.1 µM (inactive) | > 100 µM (inactive) | 34.2 µM (inactive) |
| Nc1ccc(-c2nnc(-c3c(Cl)c(Cl)c(Cl)c(Cl)c3-c3nc4cc(C(=O)c5ccccc5)ccc4[nH]3)o2)cc1 | 17.1 µM (inactive) | 41.7 µM (inactive) | 24.6 µM (inactive) | 48.1 µM (inactive) |  | 20.6 µM (inactive) | 28.5 µM (inactive) | 34.6 µM (inactive) | 18 µM (inactive) | 33 µM (inactive) | 19.5 µM (inactive) | 24.5 µM (inactive) | 27.2 µM (inactive) | 29.5 µM (inactive) | 18.3 µM (inactive) | 27.5 µM (inactive) | 18.1 µM (inactive) | 48.4 µM (inactive) | 35.7 µM (inactive) | 8 µM (inactive) |
| Cc1csc(NCc2ccc(Cl)cc2)n1 | 61.4 µM (inactive) | 70.1 µM (inactive) | 62.7 µM (inactive) | 60.5 µM (inactive) |  | 38.6 µM (inactive) | 45.9 µM (inactive) | 99.3 µM (inactive) | 33.8 µM (inactive) | 32.3 µM (inactive) | 39.8 µM (inactive) | 50.9 µM (inactive) | 75.2 µM (inactive) | 69.7 µM (inactive) | 28.9 µM (inactive) | > 100 µM (inactive) | 41.3 µM (inactive) | 67.8 µM (inactive) | 37.4 µM (inactive) | 45.7 µM (inactive) |
| Cc1ccc(C(=O)O)c(/C=C2\Cc3cc(C)cc(C)c3C2=O)c1 | > 100 µM (inactive) | 74 µM (inactive) | > 100 µM (inactive) | > 100 µM (inactive) | 70.1 µM (inactive) | 53.7 µM (inactive) | > 100 µM (inactive) | 72.3 µM (inactive) | 40.5 µM (inactive) |  | > 100 µM (inactive) | > 100 µM (inactive) | > 100 µM (inactive) | > 100 µM (inactive) | 46.6 µM (inactive) | > 100 µM (inactive) | 78.5 µM (inactive) | 90.6 µM (inactive) | 92.3 µM (inactive) | 52.4 µM (inactive) |
| C=C(Br)C(C)(Br)CCC(Br)C(C)(C)Cl (stereo not drawn) | 17.8 µM (inactive) | 19.1 µM (inactive) | 23.8 µM (inactive) |  | 17.4 µM (inactive) | 11.7 µM (inactive) | 13.6 µM (inactive) |  | 31 µM (inactive) | 16.3 µM (inactive) | 16.9 µM (inactive) | 25.7 µM (inactive) | 18.8 µM (inactive) | 13 µM (inactive) | 20.5 µM (inactive) | 18.2 µM (inactive) | 16.2 µM (inactive) | 19.1 µM (inactive) | 17.7 µM (inactive) | 10.2 µM (inactive) |
| N#CCCN(CCCN(CCCN(C(=O)Nc1ccccc1)c1ccccc1)C(=O)Nc1ccccc1)C(=O)Nc1ccccc1 | > 8.75 µM (inactive) | > 8.75 µM (inactive) | > 8.75 µM (inactive) | > 8.75 µM (inactive) | > 100 µM (inactive) | > 8.75 µM (inactive) | > 8.75 µM (inactive) | > 100 µM (inactive) | 31.4 µM (inactive) |  | > 8.75 µM (inactive) | > 8.75 µM (inactive) | > 8.75 µM (inactive) | > 8.75 µM (inactive) | > 8.75 µM (inactive) | > 8.75 µM (inactive) | > 100 µM (inactive) | > 8.75 µM (inactive) | > 8.75 µM (inactive) | > 8.75 µM (inactive) |
| CCOC(=O)c1nc2cc(C(F)(F)F)ccc2nc1Nc1ccc(Cl)c(Cl)c1 | > 100 µM (inactive) | > 100 µM (inactive) | 86.3 µM (inactive) | > 100 µM (inactive) | 69.3 µM (inactive) | 69.7 µM (inactive) | > 100 µM (inactive) | > 100 µM (inactive) | > 100 µM (inactive) | > 100 µM (inactive) | 74.6 µM (inactive) | > 100 µM (inactive) | > 100 µM (inactive) | 73.3 µM (inactive) | > 100 µM (inactive) | > 100 µM (inactive) | 53.6 µM (inactive) | > 100 µM (inactive) | > 100 µM (inactive) |  |
| FC(F)(Sc1ccccc1)c1nc2ccccc2o1 | 91.6 µM (inactive) | 47.4 µM (inactive) | 55.5 µM (inactive) | > 100 µM (inactive) | 43.3 µM (inactive) | 28.6 µM (inactive) | > 100 µM (inactive) |  | 46.9 µM (inactive) | 91 µM (inactive) | 48.5 µM (inactive) | 67.8 µM (inactive) |  | 61.1 µM (inactive) | > 100 µM (inactive) | 75.2 µM (inactive) | 21.9 µM (inactive) | > 100 µM (inactive) | 49 µM (inactive) | 27 µM (inactive) |
| O=C1C2=Cc3ccccc3OC2(O)Oc2cc(O)cc(O)c21 (stereo not drawn) | > 100 µM (inactive) | > 100 µM (inactive) | > 100 µM (inactive) | > 100 µM (inactive) | > 100 µM (inactive) | > 100 µM (inactive) | > 100 µM (inactive) | > 100 µM (inactive) | > 100 µM (inactive) | 59.2 µM (inactive) | > 100 µM (inactive) | > 100 µM (inactive) |  | > 100 µM (inactive) | > 100 µM (inactive) | > 100 µM (inactive) | > 100 µM (inactive) | > 100 µM (inactive) |  | 81.7 µM (inactive) |
| COC(=O)C/N=C1\NC(=S)N(Cc2ccc(OC)cc2)C12CCCC2 | > 100 µM (inactive) | > 100 µM (inactive) | > 100 µM (inactive) | > 100 µM (inactive) | > 100 µM (inactive) | > 100 µM (inactive) |  |  | > 100 µM (inactive) | > 100 µM (inactive) | > 100 µM (inactive) | > 100 µM (inactive) | > 100 µM (inactive) | > 100 µM (inactive) | > 100 µM (inactive) |  | > 100 µM (inactive) | > 100 µM (inactive) | > 100 µM (inactive) | > 100 µM (inactive) |
| CC12OC(=O)[C@@]3(O)CCC4C(C[C@H]5O[C@]56CC=CC(=O)[C@]46C)C45OC[C@H]6C(=O)O[C@@H]1C[C@@]6(C)[C@H](C4=O)C23O5 (stereo partly drawn) | 0.659 µM (active) | 1.84 µM (inactive) | 0.818 µM (active) | 2.64 µM (inactive) | 3.12 µM (inactive) | 1.33 µM (inactive) | 1.24 µM (inactive) | 1.63 µM (inactive) | 2.7 µM (inactive) | 0.746 µM (active) | 4.25 µM (inactive) | 3.01 µM (inactive) | 3.85 µM (inactive) | 0.671 µM (active) | 1.36 µM (inactive) | 1 µM (active) | 1.99 µM (inactive) | 1.32 µM (inactive) |  | 0.53 µM (active) |
| CCCC(=O)C1=C(O)C(Cc2c(O)c(C)c(O)c(C(=O)CCC)c2O)=C(O)C(C)(C)C1=O | > 50 µM (inactive) | > 50 µM (inactive) | > 50 µM (inactive) | > 50 µM (inactive) | 10.9 µM (inactive) | 12.6 µM (inactive) | 37 µM (inactive) | 19 µM (inactive) |  | 15.8 µM (inactive) | 16.9 µM (inactive) | 22.4 µM (inactive) | 20.7 µM (inactive) | 13.9 µM (inactive) | 49.2 µM (inactive) | 30.6 µM (inactive) | 22.9 µM (inactive) | > 50 µM (inactive) | 15.6 µM (inactive) | 15.4 µM (inactive) |
| O=C(/C=C/C=C/c1ccccc1)CCc1ccccc1 | > 100 µM (inactive) |  | > 100 µM (inactive) | > 100 µM (inactive) | > 100 µM (inactive) | 40.7 µM (inactive) | > 100 µM (inactive) | 79.4 µM (inactive) | > 100 µM (inactive) | 63.7 µM (inactive) | > 100 µM (inactive) | > 100 µM (inactive) | 62.1 µM (inactive) | 37.6 µM (inactive) | 53.3 µM (inactive) | > 100 µM (inactive) | 61 µM (inactive) | > 100 µM (inactive) | 90.6 µM (inactive) |  |
| Clc1n[nH]c2ccccc12 | > 100 µM (inactive) | > 100 µM (inactive) | 14.7 µM (inactive) |  | > 100 µM (inactive) | > 100 µM (inactive) | > 100 µM (inactive) |  | 71 µM (inactive) | > 100 µM (inactive) | > 100 µM (inactive) | > 100 µM (inactive) | > 100 µM (inactive) | > 100 µM (inactive) | > 100 µM (inactive) | > 100 µM (inactive) | > 100 µM (inactive) | > 100 µM (inactive) | > 100 µM (inactive) | > 100 µM (inactive) |
